Legend:
[1] = biological target: Epidermal growth factor receptor (Homo sapiens, UniProt P00533); assay: DRUGMATRIX: Protein Tyrosine Kinase, EGF Receptor enzyme inhibition (substrate: Poly(Glu:Tyr)); format: cell-based, Insect cells; details: insect cells; Not Active = under 50% inhibition at 10 µM
[2] = biological target: T1, Polyunsaturated fatty acid lipoxygenase ALOX15 (Oryctolagus cuniculus, UniProt P12530); assay: biochemical; format: tissue-based, Reticulocytes; details: reticulocytes;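 note: inhibition of 15-lipoxygenase enzyme activity measured with linoleic acid as the substrate; in other assays of this panel Not Active means under 50% inhibition at 10 µM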
T1 sequence (P12530 whole entry): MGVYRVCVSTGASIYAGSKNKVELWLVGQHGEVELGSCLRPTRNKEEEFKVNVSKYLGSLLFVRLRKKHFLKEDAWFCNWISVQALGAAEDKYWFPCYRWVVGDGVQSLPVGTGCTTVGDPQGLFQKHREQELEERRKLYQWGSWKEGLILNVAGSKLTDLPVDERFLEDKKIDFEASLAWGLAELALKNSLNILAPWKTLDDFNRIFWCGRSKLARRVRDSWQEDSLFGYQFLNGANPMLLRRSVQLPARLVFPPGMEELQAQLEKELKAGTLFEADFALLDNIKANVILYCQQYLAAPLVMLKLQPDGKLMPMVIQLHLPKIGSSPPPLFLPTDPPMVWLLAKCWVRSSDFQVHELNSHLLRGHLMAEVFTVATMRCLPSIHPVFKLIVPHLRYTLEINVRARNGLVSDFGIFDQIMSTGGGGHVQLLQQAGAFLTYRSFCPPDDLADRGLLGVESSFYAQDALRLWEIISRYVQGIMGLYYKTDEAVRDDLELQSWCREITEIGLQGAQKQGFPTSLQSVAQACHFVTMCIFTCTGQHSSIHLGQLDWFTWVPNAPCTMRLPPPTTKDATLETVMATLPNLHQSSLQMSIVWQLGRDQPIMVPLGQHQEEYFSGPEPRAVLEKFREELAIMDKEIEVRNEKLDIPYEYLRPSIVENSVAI

Adenosine receptor A2a = Adenosine receptor A2a (Homo sapiens, UniProt P29274); assay: DRUGMATRIX: Adenosine A2A radioligand binding (ligand: […]); format: cell membranes, HEK293, Membrane; details: hek293; Not Active = under 50% inhibition at 10 µM
Chain of Adenosine receptor A2a (P29274 whole entry): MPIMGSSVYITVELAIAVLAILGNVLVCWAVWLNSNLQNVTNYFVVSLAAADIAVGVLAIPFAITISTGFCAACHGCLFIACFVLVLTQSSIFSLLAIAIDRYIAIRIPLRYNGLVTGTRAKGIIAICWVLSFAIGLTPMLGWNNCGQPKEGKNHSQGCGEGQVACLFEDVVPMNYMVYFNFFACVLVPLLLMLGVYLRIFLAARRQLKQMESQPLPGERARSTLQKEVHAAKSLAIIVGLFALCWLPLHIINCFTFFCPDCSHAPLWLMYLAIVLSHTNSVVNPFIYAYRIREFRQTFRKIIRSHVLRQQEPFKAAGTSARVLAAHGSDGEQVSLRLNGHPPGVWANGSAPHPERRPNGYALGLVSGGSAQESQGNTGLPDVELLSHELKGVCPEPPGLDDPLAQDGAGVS

[3] = DRUGMATRIX: Phosphodiesterase PDE3 enzyme inhibition (substrate: [3H]cAMP + cAMP); format: tissue-based, Homo sapiens; details: platelet; Not Active = under 50% inhibition at 10 µM
Leukotriene C4 synthase = biological target: T2, Leukotriene C4 synthase (Cavia porcellus, UniProt A6XA80); format: tissue-based, Lung;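 note: enzyme inhibition assay of leukotriene C4 synthase, using LTA4 as the substrate; in other assays of this panel Not Active means under 50% inhibition at 10 µM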
T2 sequence (A6XA80 whole entry): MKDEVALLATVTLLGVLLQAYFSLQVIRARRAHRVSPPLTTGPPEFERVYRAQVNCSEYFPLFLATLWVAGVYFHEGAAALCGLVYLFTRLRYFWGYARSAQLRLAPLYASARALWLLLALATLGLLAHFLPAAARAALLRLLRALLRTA

[4] = DRUGMATRIX: Tumor Necrosis Factor (TNF), Non-Selective radioligand binding (ligand: [125I] TNF-alpha); format: cell membranes, Membrane; details: u-937; Not Active = under 50% inhibition at 10 µM
D(3) dopamine receptor = D(3) dopamine receptor (Homo sapiens, UniProt P35462); assay: DRUGMATRIX: Dopamine D3 radioligand binding (ligand: [3H] Spiperone); format: cell membranes, CHO, Membrane; details: cho
Chain of D(3) dopamine receptor (P35462 whole entry): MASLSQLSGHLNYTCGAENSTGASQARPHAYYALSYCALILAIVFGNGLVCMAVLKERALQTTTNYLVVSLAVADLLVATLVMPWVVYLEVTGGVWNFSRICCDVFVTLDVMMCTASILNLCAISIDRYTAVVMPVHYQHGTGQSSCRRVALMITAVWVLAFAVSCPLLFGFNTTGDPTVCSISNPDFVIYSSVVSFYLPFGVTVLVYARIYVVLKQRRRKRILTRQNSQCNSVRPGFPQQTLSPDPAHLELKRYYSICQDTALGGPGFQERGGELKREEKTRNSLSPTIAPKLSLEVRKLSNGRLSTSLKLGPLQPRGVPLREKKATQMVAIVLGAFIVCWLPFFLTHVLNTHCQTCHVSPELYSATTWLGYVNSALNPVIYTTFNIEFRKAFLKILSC

[5] = biological target: Beta-3 adrenergic receptor (Homo sapiens, UniProt P13945); assay: DRUGMATRIX: Adrenergic beta3 radioligand binding (ligand: [125I] Cyanopindolol); format: cell membranes, Membrane; details: hek293; Not Active = under 50% inhibition at 10 µM
Chain of Beta-3 adrenergic receptor (P13945 whole entry): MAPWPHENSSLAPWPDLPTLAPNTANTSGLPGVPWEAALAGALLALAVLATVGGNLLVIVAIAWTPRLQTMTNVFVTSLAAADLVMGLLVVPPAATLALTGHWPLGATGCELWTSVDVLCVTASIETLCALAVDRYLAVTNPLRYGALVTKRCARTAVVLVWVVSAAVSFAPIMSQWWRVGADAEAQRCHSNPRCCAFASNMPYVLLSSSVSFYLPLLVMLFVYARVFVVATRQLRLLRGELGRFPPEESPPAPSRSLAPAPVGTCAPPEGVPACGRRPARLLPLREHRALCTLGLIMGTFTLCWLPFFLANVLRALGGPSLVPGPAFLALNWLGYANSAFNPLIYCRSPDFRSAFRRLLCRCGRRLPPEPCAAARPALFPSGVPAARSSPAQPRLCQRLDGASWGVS

[6] = biological target: Beta-2 adrenergic receptor (Homo sapiens, UniProt P07550); assay: DRUGMATRIX: Adrenergic beta2 radioligand binding (ligand: [3H] CGP-12177); format: cell membranes, Membrane; details: cho; Not Active = under 50% inhibition at 10 µM
Chain of Beta-2 adrenergic receptor (P07550 whole entry): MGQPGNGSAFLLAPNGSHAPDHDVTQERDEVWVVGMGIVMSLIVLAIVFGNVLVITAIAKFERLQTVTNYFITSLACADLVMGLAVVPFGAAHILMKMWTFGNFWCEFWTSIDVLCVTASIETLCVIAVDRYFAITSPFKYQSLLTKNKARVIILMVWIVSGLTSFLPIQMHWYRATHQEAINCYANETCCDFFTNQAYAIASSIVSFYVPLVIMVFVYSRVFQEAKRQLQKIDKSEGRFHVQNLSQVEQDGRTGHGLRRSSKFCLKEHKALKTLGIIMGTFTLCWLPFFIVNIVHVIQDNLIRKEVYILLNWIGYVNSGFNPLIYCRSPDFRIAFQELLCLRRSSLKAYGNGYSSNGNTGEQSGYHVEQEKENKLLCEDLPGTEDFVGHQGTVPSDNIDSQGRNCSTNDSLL

[7] = DRUGMATRIX: Sigma2 radioligand binding (ligand: [3H] Ifenprodil); format: cell membranes, Rattus norvegicus, Wistar, Brain, Membrane; details: Not Active = under 50% inhibition at 10 µM

Chain of Epidermal growth factor receptor (P00533 whole entry): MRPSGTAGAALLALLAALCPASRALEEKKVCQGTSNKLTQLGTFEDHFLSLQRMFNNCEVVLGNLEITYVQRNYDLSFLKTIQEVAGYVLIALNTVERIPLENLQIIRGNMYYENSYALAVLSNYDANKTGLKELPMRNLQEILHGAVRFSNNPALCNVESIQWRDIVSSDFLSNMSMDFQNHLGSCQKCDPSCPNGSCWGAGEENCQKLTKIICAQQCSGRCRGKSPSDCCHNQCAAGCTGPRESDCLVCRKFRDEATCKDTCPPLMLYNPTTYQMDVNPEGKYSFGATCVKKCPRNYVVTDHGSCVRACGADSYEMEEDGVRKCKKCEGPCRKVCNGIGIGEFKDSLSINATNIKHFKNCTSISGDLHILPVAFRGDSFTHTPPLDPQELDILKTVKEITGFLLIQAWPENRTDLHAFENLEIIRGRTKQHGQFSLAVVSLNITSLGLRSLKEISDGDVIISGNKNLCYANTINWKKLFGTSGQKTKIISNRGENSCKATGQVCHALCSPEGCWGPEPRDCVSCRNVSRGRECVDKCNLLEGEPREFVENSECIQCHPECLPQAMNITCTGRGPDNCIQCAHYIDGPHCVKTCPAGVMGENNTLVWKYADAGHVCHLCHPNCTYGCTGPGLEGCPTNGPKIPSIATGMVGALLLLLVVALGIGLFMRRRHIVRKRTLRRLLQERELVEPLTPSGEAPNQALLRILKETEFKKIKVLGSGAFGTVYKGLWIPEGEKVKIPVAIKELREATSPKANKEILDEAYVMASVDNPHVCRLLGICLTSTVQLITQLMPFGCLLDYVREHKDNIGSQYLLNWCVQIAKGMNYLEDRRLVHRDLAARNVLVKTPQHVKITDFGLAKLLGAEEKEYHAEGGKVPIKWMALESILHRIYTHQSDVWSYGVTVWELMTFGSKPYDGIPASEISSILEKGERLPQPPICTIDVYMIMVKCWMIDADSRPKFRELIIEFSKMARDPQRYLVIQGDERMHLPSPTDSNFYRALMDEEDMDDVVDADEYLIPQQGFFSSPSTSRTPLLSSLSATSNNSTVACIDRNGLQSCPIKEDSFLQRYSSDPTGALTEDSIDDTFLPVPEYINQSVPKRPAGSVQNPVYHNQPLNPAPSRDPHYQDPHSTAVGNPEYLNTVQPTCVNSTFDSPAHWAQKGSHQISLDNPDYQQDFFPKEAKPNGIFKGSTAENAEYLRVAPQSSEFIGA

CNC(=C[N+](=O)[O-])NCCSCc1ccc(CN(C)C)o1 [RANITIDINE]
Not Active: IC50 [1] | IC50 [2] | IC50 (Adenosine receptor A2a) | IC50 [3] | Ki [3] | IC50 (Leukotriene C4 synthase) | IC50 [4] | Ki [4] | IC50 (D(3) dopamine receptor) | IC50 [5] | IC50 [6] | IC50 [7] | Ki [7]

CO[C@H]1/C=C/O[C@@]2(C)Oc3c(C)c(O)c4c(c3C2=O)C2=NC3(CCN(CC(C)C)CC3)NC2=C(NC(=O)/C(C)=C\C=C\[C@H](C)[C@H](O)[C@@H](C)[C@@H](O)[C@@H](C)[C@H](OC(C)=O)[C@@H]1C)C4=O [RIFABUTIN]
Not Active: IC50 [1] | IC50 [2] | IC50 (Adenosine receptor A2a) | IC50 [3] | Ki [3] | IC50 (Leukotriene C4 synthase) | IC50 [4] | Ki [4] | IC50 (D(3) dopamine receptor) | IC50 [5] | IC50 [6] | IC50 [7] | Ki [7]

CC(C)c1nc(CN(C)C(=O)N[C@H](C(=O)N[C@@H](Cc2ccccc2)C[C@H](O)[C@H](Cc2ccccc2)NC(=O)OCc2cncs2)C(C)C)cs1 [RITONAVIR]
Not Active: IC50 [1] | IC50 [2] | IC50 (Adenosine receptor A2a) | IC50 [3] | Ki [3] | IC50 (Leukotriene C4 synthase) | IC50 [4] | Ki [4] | IC50 (D(3) dopamine receptor) | IC50 [5] | IC50 [6] | IC50 [7] | Ki [7]

CC(C)CC(N(C)C)C1(c2ccc(Cl)cc2)CCC1 (centres undefined) [SIBUTRAMINE]
Not Active: IC50 [1] | IC50 [2] | IC50 (Adenosine receptor A2a) | IC50 [3] | Ki [3] | IC50 (Leukotriene C4 synthase) | IC50 [4] | Ki [4] | IC50 (D(3) dopamine receptor) | IC50 [5] | IC50 [6] | IC50 [7] | Ki [7]

[H]/N=C(/N)N[C@H]1[C@H](O)[C@@H](O)[C@H](O[C@@H]2O[C@@H](C)[C@](O)(C=O)[C@H]2O[C@@H]2O[C@@H](CO)[C@H](O)[C@@H](O)[C@@H]2NC)[C@@H](N/C(N)=N\[H])[C@@H]1O [STREPTOMYCIN]
Not Active: IC50 [1] | IC50 [2] | IC50 (Adenosine receptor A2a) | IC50 [3] | Ki [3] | IC50 (Leukotriene C4 synthase) | IC50 [4] | Ki [4] | IC50 (D(3) dopamine receptor) | IC50 [5] | IC50 [6] | IC50 [7] | Ki [7]

COc1cc(NS(=O)(=O)c2ccc(N)cc2)nc(OC)n1 [SULFADIMETHOXINE]
Not Active: IC50 [1] | IC50 [2] | IC50 (Adenosine receptor A2a) | IC50 [3] | Ki [3] | IC50 (Leukotriene C4 synthase) | IC50 [4] | Ki [4] | IC50 (D(3) dopamine receptor) | IC50 [5] | IC50 [6] | IC50 [7] | Ki [7]

Cc1cc(C)nc(NS(=O)(=O)c2ccc(N)cc2)n1 [SULFAMETHAZINE]
Not Active: IC50 [1] | IC50 [2] | IC50 (Adenosine receptor A2a) | IC50 [3] | Ki [3] | IC50 (Leukotriene C4 synthase) | IC50 [4] | Ki [4] | IC50 (D(3) dopamine receptor) | IC50 [5] | IC50 [6] | IC50 [7] | Ki [7]

C[C@]1(Cn2ccnn2)[C@H](C(=O)O)N2C(=O)C[C@H]2S1(=O)=O [TAZOBACTAM]
Not Active: IC50 [1] | IC50 [2] | IC50 (Adenosine receptor A2a) | IC50 [3] | Ki [3] | IC50 (Leukotriene C4 synthase) | IC50 [4] | Ki [4] | IC50 (D(3) dopamine receptor) | IC50 [5] | IC50 [6] | IC50 [7] | Ki [7]

CN1C(C(=O)Nc2ccccn2)=C(O)c2sccc2S1(=O)=O [TENOXICAM]
Not Active: IC50 [1] | IC50 [2] | IC50 (Adenosine receptor A2a) | IC50 [3] | Ki [3] | IC50 (Leukotriene C4 synthase) | IC50 [4] | Ki [4] | IC50 (D(3) dopamine receptor) | IC50 [5] | IC50 [6] | IC50 [7] | Ki [7]

O=C1CCC(N2C(=O)c3ccccc3C2=O)C(=O)N1 (centres undefined) [THALIDOMIDE]
Not Active: IC50 [1] | IC50 [2] | IC50 (Adenosine receptor A2a) | IC50 [3] | Ki [3] | IC50 (Leukotriene C4 synthase) | IC50 [4] | Ki [4] | IC50 (D(3) dopamine receptor) | IC50 [5] | IC50 [6] | IC50 [7] | Ki [7]

Cc1cccc(Nc2ccncc2S(=O)(=O)NC(=O)NC(C)C)c1 [TORSEMIDE]
Not Active: IC50 [1] | IC50 [2] | IC50 (Adenosine receptor A2a) | IC50 [3] | Ki [3] | IC50 (Leukotriene C4 synthase) | IC50 [4] | Ki [4] | IC50 (D(3) dopamine receptor) | IC50 [5] | IC50 [6] | IC50 [7] | Ki [7]

CC(C)C[C@H](NC(=O)[C@@H](O)[C@H](N)Cc1ccccc1)C(=O)O [UBENIMEX]
Not Active: IC50 [1] | IC50 [2] | IC50 (Adenosine receptor A2a) | IC50 [3] | Ki [3] | IC50 (Leukotriene C4 synthase) | IC50 [4] | Ki [4] | IC50 (D(3) dopamine receptor) | IC50 [5] | IC50 [6] | IC50 [7] | Ki [7]

Cc1onc(-c2ccccc2)c1-c1ccc(S(N)(=O)=O)cc1 [VALDECOXIB]
Not Active: IC50 [1] | IC50 [2] | IC50 (Adenosine receptor A2a) | IC50 [3] | Ki [3] | IC50 (Leukotriene C4 synthase) | IC50 [4] | Ki [4] | IC50 (D(3) dopamine receptor) | IC50 [5] | IC50 [6] | IC50 [7] | Ki [7]
